# What was measured:
# Sup-T1 cells = assay: Sup-T1 lymphocyte proliferation (cell counts); assay type: cell-based, human; conditions: data not shown
# Procedure: [^3H]-thymidine incorporation test: In order to test the effect of peptides derived from natural casein on T cell proliferation, several concentrations of peptides derived from natural casein (10 mg/ml stock in RPMI) were added to Sup-T1 cell cultures in 96 flat bottom microwell plate (5000 cells/well), as described for HIV-1 infection in Sup-T1 cells. Cells were counted and their viability was determined by trypan blue dye exclusion. They were pulsed with [^3H]-thymidine at each time point (3, 7, 10 and 14 days) for 18 hours (over night) and harvested on glass fiber filters for radioactivity reading (Incorporation of [^3H]-thymidine into cellular DNA is proportional to degree of cell proliferation).
# [1] = test system: Non-Obese Diabetic (NOD) mice; assay: Intraperitoneal Glucose Tolerance Test (IPGTT) in NOD mice; assay type: in vivo; conditions: healthy NOD mice after 25 weeks
# Procedure: Intraperitoneal Glucose Tolerance Test (IPGTT): The glucose tolerance test is the definitive method for investigating glucose metabolism and diabetic tendencies in mammals. Twenty five (25) weeks after receiving Synthetic peptides derived from casein, response to a glucose load was assessed with an intraperitoneal glucose tolerance test. Glucose injection consisted of 1 g/kg body weight. Glycemic values were determined from blood drawn prior to test (0 minutes) and 60 minutes after loading.
# [2] = test system: Non-Obese Diabetic (NOD) mice; assay: Glucosuria in Non-Obese Diabetic (NOD) mice; assay type: in vivo; conditions: for prevention of onset of glucosuria (in words): additional series, assayed at week 16, data not shown
# Procedure: Juvenile (Type I, IDDM) diabetes in Non-Obese Diabetic (NOD) mice:
# Peptides derived from natural casein: NOD mice are a commonly used model for research of autoimmune disease and human Juvenile Diabetes. Six week old female NOD mice received either one or two injections per week of 100 μg of peptides derived from natural casein, for a total of 5 or 10 treatments. Control mice received no treatment. The severity of disease was determined according to glucosuria, which was measured using Combi test sticks [Gross, D. J. et al (1994), Diabetology, 37:1195]. Results were expressed as the percent of glucosuria-free mice in each sample over a 365-day period.
# Synthetic peptides derived from casein: In another experiment, 6 week old female NOD mice received one injection per week of 100 μg of Synthetic peptides derived from casein for a total of 5 treatments. Control mice received no treatment. Results were expressed as the number of healthy mice in the various treated groups.
# [3] = test system: human Peripheral Blood Stem Cells (K562 target cells); assay: Natural Killer (NK) cell activity in cultured human PBSC; assay type: cell-based
# Procedure: From human Peripheral Blood Stem Cells (PBSC): PBSC of G-CSF treated subjects were separated on a FICOLL gradient, washed twice with RPMI-1640 medium containing 10% FCS and glutamine and seeded into 1.5 ml wells with or without peptides derived from natural casein or synthetic peptides derived from casein, as indicated, (0-500 μg per ml). Following two days incubation the cells were assayed for Natural Killer activity by measuring radioactivity released from ^35S-labeled K562 target cells (NEG-709A, 185.00 MBq, […] EASYTAGth Methionine, L-[^35S] 43.48 TBq per mmol, 1175.0 Ci per mmol, 0.488 ml, Boston USA). Two concentrations of effector cells (2.5×10^5 and 5×10^5 cells per well) were incubated with 5×10^3 target cells per well (effector:target cell ratios of 50:1 and 100:1, respectively) in U-bottomed 96 well tissue culture plates. The cells were incubated for 5 hours at 37° C. in 5% CO2, 95% air and precipitated by 5 minutes centrifugation at 1000 rpm. ^35S release was measured in 50 μl samples of the supernatant liquid.
# [4] = test system: HIV-1 (CEM lymphocyte cells); assay: Inhibition of HIV-1 infection of CEM lymphocytes; assay type: cell-based; conditions: for Lymphocyte cell numbers: day 7; for HIV-1 infection level, HIV-P24 antigen: control 0.52
# Procedure: Peptides: Peptides [either peptides derived from natural casein or synthetic peptides derived from casein (2-26 amino acids in length, see table 3)] supplied as lyophilized powder were resuspended in RPMI complete medium and added to cell cultures at a final concentrations of 50 to 1000 μg per ml.
# Cells: Several types of freshly isolated human cells (primary cells) and cell lines are known to be susceptible to in vitro HIV-1 infection, although essentially any cell displaying even low surface levels of the CD4 molecule can be considered a potential target for HIV-1 infection. Two commonly used human cell lines which are highly sensitive for HIV-1 infection were chosen, CEM and Sup-T1.
# CEM is a human T4-lymphoblastoid cell line initially derived by G. E. Foley et al. [(1965), Cancer 18:522] from peripheral blood buffy coat of a person with acute lymphoblastic leukemia. These cells were continuously maintained in suspension in medium, and have been used widely for analysis of infectivity, antiviral agents and neutralizing antibodies.
# Virus: The HIV virus strain employed was HIV-1IIIB, originally designated HTLV-IIIB. Concentrated culture fluids of peripheral blood from several patients with AIDS or related diseases were used to establish a permanent productive infection in H-9 cells. This subtype B virus has high capacity to replicate in human T-cell lines. Viral titer was 5.38 ng per ml in stock solution.
# HIV-1 P^24 antigen capture assay: An HIV-1 P^24 Antigen capture assay kit employed was designed to quantitate the HIV-1 P^24 core antigen, which is proportionally related to the degree of viral production in cells. This kit was purchased from the AIDS Vaccine program of the SAIC-NCI-Frederick Cancer Research Institute, P.O. Box B, Frederick, Md. 21702, USA and included 96 well plates coated with monoclonal antibody to HIV-1 P^24, primary antibody-rabbit anti-HIV P^24 serum, secondary antibody-Goat anti-rabbit-IgG (H+L) peroxidase conjugated antibody, TMB peroxidase substrate system and lysed HIV-1 P^24 standard. The HIV-1 P^24 antigen capture assay was analyzed by Organon-Technica ELISA reader at 450 nm with a reference at 650 nm.
# HIV-1 P^24 antigen capture ELISA: HIV infection was measured with an indirect enzyme immunoassay which detects HIV-1 P^24 core antigens in tissue culture media. Tissue culture supernatant was reacted with primary rabbit anti-HIV-1 P^24 antigen and visualized by peroxidase conjugated goat anti rabbit IgG. The reaction was terminated by adding 4N H2SO4, wherein the intensity of the color developed is proportional to the amount of HIV-1 antigen present in the tissue culture supernatant.
# HIV infection of human cultured CD4 cells: For longer incubations, the cells (CEM, Sup-T1) were preincubated with several increasing concentrations of peptides derived from natural casein (50-1000 μg per ml) or synthetic peptides derived from casein (10-500 μg per ml) for 24 (for synthetic and natural peptides) and 48 (only for natural peptides) hours and HIV-1IIIB (45 pg per ml final concentration) was added to each well thereafter. For the shorter incubations (3 hours), HIV-1IIIB was preincubated with the peptides for 3 hours and then added to cells (5000 cells/well) in tissue culture plates. Controls were IF (Infected, cells cultured with HIV-1 and without peptides), UIF (Uninfected, cells cultured without HIV-1 and without peptides) and UIF +Ch (Uninfected+peptides derived from natural casein, cells cultured in the presence of peptides derived from natural casein {50-1000 μg per ml}) to test the effect of peptides derived from natural casein and synthetic peptides derived from casein on cell viability and growth. Cells were counted for viability and proliferation rate on day 7, 10 and day 14 post infection (the day of P^24 antigen culture supernatant harvest). Cells and tissue culture supernatants (media) were harvested and lysed immediately in 1/10 volume of 10% Triton X-100. […]
# [5] = test system: murine bone marrow progenitor cells; assay: CFU-GEMM colonies from murine bone marrow cells, differential counts; assay type: cell-based; conditions: 53% in controls
# Procedure: Proliferation of megakaryocytes in multipotential colonies (CFU-GEMM) from murine bone marrow cells: Primary bone marrow cells (1×10^5 per ml) from 8-12 week-old C3H/HeJ […], 95% air, at 37° C. The medium, appropriate for the growth of multipotential colonies (CFU-GEMM), contained 1% BSA (Sigma), 10^−4 M thioglycerol (Sigma), 2.8×10^−4 M human transferrin (TF, Biological industries, Israel), 10% WEHI-CM as a source of IL-3 and 2 units per ml erythropoietin (rhEPO, R & D Systems, Minneapolis). […] They were picked with a micropipette, cytocentrifuged and stained with May-Grunwald-Giemsa for differential counts. At least 700 cells were counted for each preparation.
# Proliferation of Dendritic cells in CFU-GEMM: Multipotent (CFU-GEMM) colonies grown from primary bone marrow cells as described for the assay of megakaryocyte proliferation above were collected, stained and counted for dendritic cells. At least 700 cells were counted for each preparation.
# Proliferation of Plasma cells in CFU-GEMM: Multipotent (CFU-GEMM) colonies grown from primary bone marrow cells as described for the assay of megakaryocyte proliferation above were collected, stained and counted for plasma cells. At least 700 cells were counted for each preparation.
# Proliferation of Macrophage Cells in CFU-GEMM: Multipotent (CFU-GEMM) colonies grown from primary bone marrow cells as described for the assay of megakaryocyte proliferation above were collected, stained and counted for macrophage cells. At least 700 cells were counted for each preparation.
# Proliferation of Red Blood Cells in CFU-GEMM: Multipotent (CFU-GEMM) colonies grown from primary bone marrow cells as described for the assay of megakaryocyte proliferation above were collected, stained and counted for red blood cells. At least 700 cells were counted for each preparation.
# Proliferation of Polymorphonuclear Cells (PMN) in CFU-GEMM: Multipotent (CFU-GEMM) colonies grown from primary bone marrow cells as described for the assay of megakaryocyte proliferation above were collected, stained and counted for polymorphonuclear cells. […]
# [6] = test system: murine bone marrow progenitor cells; assay: CFU-GM colony formation with IL-3 and G-CSF, murine bone marrow; assay type: cell-based
# Procedure: Cells were scored in the macroscopic colonies grown from murine bone marrow cells prepared similarly to the CFU-GEMM colonies previously described. Cells were incubated with hematopoietic factors cytokine (IL-3) and colony stimulating factor (G-CSF), and 25 μg or more of synthetic peptides derived from casein (J), representing amino acids 1-22 of α-S1 casein, or 30-4, representing amino acids 1-6 of α-S1 casein, for 14 days, individually or in combination. The stimulation of colony formation (CFU) is expressed as the number of myeloid colonies in 10^5 plated MNCs.
# Synthetic peptides derived from αS1-casein stimulate Granulopoietic (GM) cell proliferation in CFU-GM: As mentioned hereinabove, formation and expansion of CFU-GM (Granulocyte and Macrophage) colonies, and CFU-GEMM (Granulocyte, Erythroid, Macrophage and Megakaryocyte) colonies constitute one of the early events in the differentiation of hematopoietic progenitor cells in the bone marrow.
# [7] = test system: irradiated, bone marrow transplanted mice; assay: Leukocyte and platelet reconstitution in bone marrow transplant recipient mice; assay type: in vivo; conditions: 800 cGy; 1.0 mg i.p. daily, days 4-7
# Procedure: Leukocyte and platelet reconstitution in bone marrow transplant recipient Mice: BALB/c mice were sub-lethally irradiated at a source to skin distance of 70 cm, dosage of 50 cGy per minute, for a total of 600 cGy. The irradiated mice were […] casein, synthetic peptides derived from casein (13-26 amino acids, see Table 3 above), or human serum albumin (controls), following a double-blinded protocol. Leukocyte reconstitution was determined according to cell count in peripheral blood collected at indicated intervals from 6 to 12 days post treatment. Platelet reconstitution was determined by cell count in blood collected from the retro orbital plexus, into EDTA-containing vials, at indicated intervals from day 6 to day 15 post treatment. […]
# In a third series of experiments, the mice were irradiated (800 cGy), reconstituted and injected intraperitoneally with 1.0 mg synthetic peptides derived from casein (peptides 3a and 4P, representing the first 6 and 12 amino acids of the N terminus of αS1 casein, respectively—see Table 3 above) daily, on days 4, 5, 6 and 7 post-transplantation. Platelet reconstitution was assayed at 10 and 12 days post-transplantation.
# In a fourth series of experiments, F1 mice were irradiated (750 cGy), reconstituted with syngeneic bone marrow, and injected intravenously 24 hours later with 1 mg per mouse of synthetic peptides derived from casein representing amino acids 1-22 of the N terminus of αS1 casein. In addition, 2 (two) groups of mice were treated each with a natural fraction of αS1 casein position 1-23, and a fraction of peptides derived from natural κ-casein, representing amino acid coordinates 106-169 of κ-casein (SEQ ID NO: 27). WBC counts were conducted on days 5, 7, 10 and 12 post-transplantation.
substance,measurement,setting,value
"RPKHPIKHQ [X, synthetic peptide, N-terminal 9 amino acids of αS1 casein]",increase in lymphocyte cell number in infected cells,Sup-T1 cells; 250 μg per ml,80%
same,increase in lymphocyte cell number in infected cells,Sup-T1 cells; 500 μg per ml,33%
same,IPGT test outcome (in words),[1],no evidence of abnormal glucose metabolism
same,prevention of glucosuria (in words),"[2]; 100 μg once weekly for 5 weeks, 25 weeks",highly effective
same,Healthy/Total (sugar not detected in urine),"[2]; female NOD mice, 100 μg synthetic peptide once weekly for 5 weeks, evaluated after 25 weeks",3/5
same,Urine Sugar,"[2]; individual healthy NOD mice, after 25 weeks",Negative
"RPK [1P, synthetic peptide, N-terminal 3 amino acids of αS1 casein]",target cell lysis relative to untreated controls,"[3]; PBS cells from 5 donors with hematopoietic disease, 25-250 μg/ml",from 2- to greater then 8-fold
same,effect on NK activity in PBSC from healthy human donors,[3]; healthy donors,No significant effect
same,Lymphocyte cell numbers,"[4]; 100 μg per ml, infected control 1.06×10^6",1.29×10^6
same,"HIV-1 infection level, HIV-P24 antigen","[4]; 100 μg/ml, 7 days post infection",0.17 ng P^24 Antigen/ml
same,Lymphocyte cell numbers,"[4]; 500 μg per ml, infected control 1.06×10^6",2.01×10^6
same,"HIV-1 infection level, HIV-P24 antigen","[4]; 500 μg/ml, 7 days post infection",0.14 ng P^24 Antigen/ml
same,prevention of onset of glucosuria (in words),[2],effectively prevented the onset of glucosuria
"RPKH [2P, synthetic peptide, N-terminal 4 amino acids of αS1 casein]","red blood cells, % of total cell count",[5],71%
same,prevention of onset of glucosuria (in words),[2],effectively prevented the onset of glucosuria
"RPKHPI [4P, synthetic peptide, N-terminal 6 amino acids of αS1 casein]",myelocyte formation with G-CSF and IL-3 (in words),"[6]; 25 μg or more, 14 days",synergistic increase
same,increase in proliferation of granulocytes,[6]; in the presence of G-CSF,18%
same,"increase in platelet counts over control, 12 days post transplantation",[7],29%
same,"platelet counts, 12 days post transplantation",[7],872000 mL⁻¹
same,Cell counts,"[4]; 25 μg per ml, virus pre-treated 3 hours, infected control 1.06×10^6",1.26×10^6
same,Cell numbers,"[4]; 250 μg per ml, virus pre-treated 3 hours, infected control 1.06×10^6",1.59×10^6
same,"HIV-P24 antigen, viral particles vs infected control (in words)","[4]; virus preincubated 3 hours, 7 days post infection",dose dependent reduction
